How the values were obtained:
[1] = pKa (acid dissociation constant); assay type: physicochemical; conditions: protonated form of the therapeutic agent; read-out: first pKa
Text: It is described in U.S. Pat. No. 8,039,469, the contents of which are incorporated by reference. […] As indicated above, it is a base. It is a protonatable nitrogen-containing therapeutic agent. As used herein, a “protonatable nitrogen-containing therapeutic agent” includes any pharmaceutically active agent that contains at least one nitrogen-containing functional group that is capable of being protonated. In other words, the therapeutic agent has a nitrogen atom thereon which has a lone pair of electrons that could potentially accept a proton. The pKa refers to the acid dissociation constant on a logarithmic scale of the corresponding protonated form of the therapeutic agent. In other words, if a proton (H+) were present at the nitrogen atoms where there is an arrow indicated, the therapeutic agent would have the pKa indicated below:
The pKa information for the most basic nitrogen (bottom) and a less basic but still protonatable nitrogen (upper) are shown above. ACD is a calculated number using standard techniques known in the art, such as described in Liao C Z, Nicklaus M C. Comparison of nine programs predicting pK(a) values of pharmaceutical substances. J. Chem. Inform. Model. 49(12):2801-2812, 2009. It has to be understood that the pKa of the therapeutic agent refers to the protonated form thereof. […]

[2] = pharmacokinetics of nanoparticles in Wistar Han rats; assay type: in vivo; conditions: rat; male Wistar Han rats, intravenous 1 mg/kg bolus, plasma
Procedure: The protocol was as follows: Male Wistar Han rats (approximately six weeks in age; n=4/group) with indwelling jugular vein cannulae were dosed intravenously with a 1 mg/kg bolus of Formulation A, B, and C nanoparticles or Formulation A, B, and C nanoparticles diluted in 0.9% saline. At various times after dosing, serial blood collections were made from the jugular vein cannulae and plasma concentrations of therapeutic agent were quantitated by LC-MS/MS.

[3] = physchem; assay type: physicochemical
Text: It is described in U.S. Pat. No. 8,039,469, the contents of which are incorporated by reference. […] As indicated above, it is a base. It is a protonatable nitrogen-containing therapeutic agent. As used herein, a “protonatable nitrogen-containing therapeutic agent” includes any pharmaceutically active agent that contains at least one nitrogen-containing functional group that is capable of being protonated. In other words, the therapeutic agent has a nitrogen atom thereon which has a lone pair of electrons that could potentially accept a proton. The pKa refers to the acid dissociation constant on a logarithmic scale of the corresponding protonated form of the therapeutic agent. In other words, if a proton (H+) were present at the nitrogen atoms where there is an arrow indicated, the therapeutic agent would have the pKa indicated below: […]

CN(C)C1CCN(C(=O)c2ccc(NC(=O)Nc3ccc(-c4nc(N5CCOCC5)nc(N5CCOCC5)n4)cc3)cc2)CC1 [therapeutic agent, 1-(4-{[4-(dimethylamino)piperidin-1-yl]carbonyl}phenyl)-3-[4-(4,6-dimorpholin-4-yl-1,3,5-triazin-2-yl)phenyl]urea]
pKa [1]: ~6.7
AUC [2]: 920 ng·h/mL
half-life [2]: 13.2 h
logD ([3]; pH 6.5): 0.212
logD ([3]; pH 7.4): 1.08

From patent US10071100B2, “Therapeutic nanoparticles comprising a therapeutic agent and methods of making and using the same” (PFIZER INC., priority 2014, dated 2018)
